Here are results for 2 compounds from patent publication US8338337B2, “Substituted pyridines having a herbicidal effect” (BASF SE, priority 2008, dated 2012).

For assay [1], the system named is AMARE. The experiment in a line: greenhouse pre-emergence herbicidal test. To be noted: 0.5 kg/ha, scale 0 to 100. The class given is in vivo, Amaranthus retroflexus. From the text: The seeds of the test plants were sown separately for each species. For the pre-emergence treatment, the active compounds, which had been suspended or emulsified in water, were applied directly after sowing by means of finely distributing nozzles. The containers were irrigated gently to promote germination and growth and subsequently covered with transparent plastic hoods until the plants had rooted. This cover caused uniform germination of the test plants, unless this has been impaired by the active compounds. Depending on the species, the plants were kept at 10-25° C. or 20-35° C. The test period extended over 2 to 4 weeks. During this time, the plants were tended, and their response to the individual treatments was evaluated. Evaluation was carried out using a scale from 0 to 100. 100 means no emergence of the plants, or complete destruction of at least the aerial moieties, and 0 means no damage, or normal course of growth. A good herbicidal activity is given at values of at least 70 and a very good herbicidal activity is given at values of at least 85. [table]

Assay [2] has as its system ABUTH. The experiment in a line: greenhouse post-emergence herbicidal test. As to conditions: 3.0 kg/ha, scale 0 to 100. Type of assay: in vivo, Abutilon theophrasti. From the text: The seeds of the test plants were sown separately for each species. For the post-emergence treatment, the test plants were first grown to a height of 3 to 15 cm, depending on the plant habit, and then treated with the active compounds which had been suspended or emulsified in water. For this purpose, the test plants were either sown directly and grown in the same containers, or they were first grown separately as seedlings and transplanted into the test containers a few days prior to treatment. Depending on the species, the plants were kept at 10-25° C. or 20-35° C. The test period extended over 2 to 4 weeks. During this time, the plants were tended, and their response to the individual treatments was evaluated. Evaluation was carried out using a scale from 0 to 100. 100 means no emergence of the plants, or complete destruction of at least the aerial moieties, and 0 means no damage, or normal course of growth. A good herbicidal activity is given at values of at least 70 and a very good herbicidal activity is given at values of at least 85. [table]

Turning to `O=c1oc2cccnc2c(O)c1-c1cc(C(F)(F)F)ccc1C(F)(F)F` [I-35], in assay [1], the “herbicidal activity against AMARE” value is “very good (a very good herbicidal activity is given at values of at least 85)”. As for `O=c1oc2ccc(O)nc2c(O)c1-c1ccccc1C(F)(F)F` [I-23], the “herbicidal activity against ABUTH” value in assay [2] was “good (A good herbicidal activity is given at values of at least 70)”.
